According to PubChem BioAssay (NCI):
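GI50 marks 50% less growth. TGI marks complete inhibition of growth.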

What was measured:
Assay in all cases: NCI-60 cell line screen, 384-well format
A498 renal = test system: A498 renal
A549 NSCLC = test system: A549 NSCLC
ACHN renal = test system: ACHN renal
BT-549 breast = test system: BT-549 breast
CAKI-1 renal = test system: CAKI-1 renal
COLO 205 colon = test system: COLO 205 colon
DU-145 prostate = test system: DU-145 prostate
EKVX NSCLC = test system: EKVX NSCLC
HCC-2998 colon = test system: HCC-2998 colon
HCT-116 colon = test system: HCT-116 colon
HCT-15 colon = test system: HCT-15 colon
HL-60(TB) leukemia = test system: HL-60(TB) leukemia
HOP-62 NSCLC = test system: HOP-62 NSCLC
HOP-92 NSCLC = test system: HOP-92 NSCLC
HS 578T breast = test system: HS 578T breast
HT29 colon = test system: HT29 colon
IGROV1 ovarian = test system: IGROV1 ovarian
KM12 colon = test system: KM12 colon
LOX IMVI melanoma = test system: LOX IMVI melanoma
M14 melanoma = test system: M14 melanoma
MALME-3M melanoma = test system: MALME-3M melanoma
MCF7 breast = test system: MCF7 breast
MDA-MB-231 breast = test system: MDA-MB-231 breast
MDA-MB-435 melanoma = test system: MDA-MB-435 melanoma
MDA-MB-468 breast = test system: MDA-MB-468 breast
MOLT-4 leukemia = test system: MOLT-4 leukemia
NCI-H226 lung = test system: NCI-H226 lung
NCI-H23 lung = test system: NCI-H23 lung
NCI-H322M lung = test system: NCI-H322M lung
NCI-H460 NSCLC = test system: NCI-H460 NSCLC
NCI-H522 lung = test system: NCI-H522 lung
NCI/ADR-RES ovarian = test system: NCI/ADR-RES ovarian
OVCAR-3 ovarian = test system: OVCAR-3 ovarian
OVCAR-4 ovarian = test system: OVCAR-4 ovarian
OVCAR-5 ovarian = test system: OVCAR-5 ovarian
OVCAR-8 ovarian = test system: OVCAR-8 ovarian
PC-3 prostate = test system: PC-3 prostate
RPMI-8226 leukemia = test system: RPMI-8226 leukemia
RXF 393 renal = test system: RXF 393 renal
SF-268 CNS = test system: SF-268 CNS
SF-295 CNS = test system: SF-295 CNS
SF-539 CNS = test system: SF-539 CNS
SK-MEL-28 melanoma = test system: SK-MEL-28 melanoma
SK-MEL-5 melanoma = test system: SK-MEL-5 melanoma
SK-OV-3 ovarian = test system: SK-OV-3 ovarian
SN12C renal = test system: SN12C renal
SNB-19 CNS = test system: SNB-19 CNS
SNB-75 CNS = test system: SNB-75 CNS
SR leukemia = test system: SR leukemia
T-47D breast = test system: T-47D breast
TK-10 renal = test system: TK-10 renal
U251 glioblastoma = test system: U251 glioblastoma
UACC-257 melanoma = test system: UACC-257 melanoma
UACC-62 melanoma = test system: UACC-62 melanoma

Question: Which results are given for `O=C1Nc2ccc(CN3CCOC3=O)cc2/C1=C/c1cc(CN2CCOCC2)c[nH]1`?
Answer: GI50 (A498 renal): > 100 µM; TGI (A498 renal): > 100 µM; GI50 (A549 NSCLC): 49.7 µM; TGI (A549 NSCLC): > 100 µM; GI50 (ACHN renal): 77.9 µM; TGI (ACHN renal): > 100 µM; GI50 (BT-549 breast): 24.5 µM; TGI (BT-549 breast): 58.9 µM; GI50 (CAKI-1 renal): 58.5 µM; TGI (CAKI-1 renal): > 100 µM; GI50 (COLO 205 colon): 49.2 µM; TGI (COLO 205 colon): > 100 µM; GI50 (DU-145 prostate): 45.9 µM; TGI (DU-145 prostate): > 100 µM; GI50 (EKVX NSCLC): 38.2 µM; TGI (EKVX NSCLC): > 100 µM; GI50 (HCC-2998 colon): 30.1 µM; TGI (HCC-2998 colon): 68.1 µM; GI50 (HCT-116 colon): 41.2 µM; TGI (HCT-116 colon): > 100 µM; GI50 (HCT-15 colon): 27.9 µM; TGI (HCT-15 colon): 93.1 µM; GI50 (HL-60(TB) leukemia): 16.3 µM; TGI (HL-60(TB) leukemia): 30 µM; GI50 (HOP-62 NSCLC): 31.6 µM; TGI (HOP-62 NSCLC): 75.9 µM; GI50 (HOP-92 NSCLC): > 100 µM; TGI (HOP-92 NSCLC): > 100 µM; GI50 (HS 578T breast): 64.6 µM; TGI (HS 578T breast): > 100 µM; GI50 (HT29 colon): 30.4 µM; TGI (HT29 colon): > 100 µM; GI50 (IGROV1 ovarian): 43.4 µM; TGI (IGROV1 ovarian): > 100 µM; GI50 (KM12 colon): 5.29 µM; TGI (KM12 colon): > 100 µM; GI50 (LOX IMVI melanoma): 28.7 µM; TGI (LOX IMVI melanoma): 68.3 µM; GI50 (M14 melanoma): 49 µM; TGI (M14 melanoma): > 100 µM; GI50 (MALME-3M melanoma): > 100 µM; TGI (MALME-3M melanoma): > 100 µM; GI50 (MCF7 breast): 33.1 µM; TGI (MCF7 breast): > 100 µM; GI50 (MDA-MB-231 breast): 58.8 µM; TGI (MDA-MB-231 breast): > 100 µM; GI50 (MDA-MB-435 melanoma): 25.5 µM; TGI (MDA-MB-435 melanoma): 76.7 µM; GI50 (MDA-MB-468 breast): 23 µM; TGI (MDA-MB-468 breast): 85.1 µM; GI50 (MOLT-4 leukemia): 20.5 µM; TGI (MOLT-4 leukemia): 36.5 µM; GI50 (NCI-H226 lung): 33.3 µM; TGI (NCI-H226 lung): 83 µM; GI50 (NCI-H23 lung): 25.2 µM; TGI (NCI-H23 lung): > 100 µM; GI50 (NCI-H322M lung): 43.7 µM; TGI (NCI-H322M lung): > 100 µM; GI50 (NCI-H460 NSCLC): 19.6 µM; TGI (NCI-H460 NSCLC): 40 µM; GI50 (NCI-H522 lung): 21.6 µM; TGI (NCI-H522 lung): 55.2 µM; GI50 (NCI/ADR-RES ovarian): 30 µM; TGI (NCI/ADR-RES ovarian): 83.9 µM; GI50 (OVCAR-3 ovarian): 40.3 µM; TGI (OVCAR-3 ovarian): > 100 µM; GI50 (OVCAR-4 ovarian): 33.5 µM; TGI (OVCAR-4 ovarian): 93.3 µM; GI50 (OVCAR-5 ovarian): > 100 µM; TGI (OVCAR-5 ovarian): > 100 µM; GI50 (OVCAR-8 ovarian): 37.8 µM; TGI (OVCAR-8 ovarian): > 100 µM; GI50 (PC-3 prostate): 35.3 µM; TGI (PC-3 prostate): 98.1 µM; GI50 (RPMI-8226 leukemia): 18.2 µM; TGI (RPMI-8226 leukemia): 39.8 µM; GI50 (RXF 393 renal): 96.3 µM; TGI (RXF 393 renal): > 100 µM; GI50 (SF-268 CNS): 49.9 µM; TGI (SF-268 CNS): > 100 µM; GI50 (SF-295 CNS): 33.8 µM; TGI (SF-295 CNS): > 100 µM; GI50 (SF-539 CNS): 53.8 µM; TGI (SF-539 CNS): > 100 µM; GI50 (SK-MEL-28 melanoma): 71.8 µM; TGI (SK-MEL-28 melanoma): > 100 µM; GI50 (SK-MEL-5 melanoma): 15.7 µM; TGI (SK-MEL-5 melanoma): 30.8 µM; GI50 (SK-OV-3 ovarian): 43.5 µM; TGI (SK-OV-3 ovarian): > 100 µM; GI50 (SN12C renal): 27.1 µM; TGI (SN12C renal): > 100 µM; GI50 (SNB-19 CNS): 63.3 µM; TGI (SNB-19 CNS): > 100 µM; GI50 (SNB-75 CNS): 86 µM; TGI (SNB-75 CNS): > 100 µM; GI50 (SR leukemia): 14 µM; TGI (SR leukemia): 30.6 µM; GI50 (T-47D breast): 17.5 µM; TGI (T-47D breast): 44 µM; GI50 (TK-10 renal): 43.3 µM; TGI (TK-10 renal): > 100 µM; GI50 (U251 glioblastoma): 42.2 µM; TGI (U251 glioblastoma): > 100 µM; GI50 (UACC-257 melanoma): 35.6 µM; TGI (UACC-257 melanoma): > 100 µM; GI50 (UACC-62 melanoma): 45.1 µM; TGI (UACC-62 melanoma): > 100 µM
